Assay results from patent US7253177B2, “Synthesis and antimalarial activity of pyrrolo[3,2-f]quinazoline-1,3-diamine derivatives” (United States of America as Represented by the Secretary of …, priority 2004, dated 2007).
Converted amounts (≈) assume the structure as drawn. Like-named read-outs stand apart in the source and are kept apart here.

Columns and labels:
[1] = tested on: Plasmodium falciparum D-6 clone (CDC Sierra Leone I); test: In vitro antimalarial study, [3H]hypoxanthine uptake, D-6 clone; assay type: cell-based; conditions: Plasmodium falciparum, read-out: IC50 D-6
Protocol: (§1) B. Antimalarial Activities: (a). In Vitro Antimalarial Studies. The in vitro assays were conducted by using a modification of the semiautomated microdilution technique of Desjardins et al and Chulay et al.. Four P. falciparum malaria parasite clones, from CDC Indochina III (W-2), CDC Sierra Leone I (D-6), Southeast Asia Isolates (TM91C235) and RCS (Isolates from Brazil) were utilized in susceptibility testing. They were derived by direct visualization and micromanipulation from patient isolates. The W-2 clone is susceptible to mefloquine but resistant to chloroquine, sulfadoxine, pyrimethamine, and quinine, whereas the D-6 clone is naturally resistant to mefloquine but susceptible to chloroquine, sulfadoxine, pyrimethamine and quinine. Test compounds were initially dissolved in DMSO and diluted 400 fold in RPMI 1640 culture medium supplemented with 25 mM Hepes, 32 mM NaHCO3 and 10% Albumax I (Gibco BRL, Grand Island, N.Y.). These solutions were subsequently serially diluted two-fold with a Biomek 1000 (Beckman, Fullerton, Calif.) over 11 different concentrations. The parasites were exposed to serial dilutions of each compound for 48 hrs and incubated at 37° C. with 5% O2, 5% CO2 and 90% N2 prior to the addition of [^3H]hypoxanthine. After a further incubation of 18 hrs, parasite DNA was harvested from each microtiter well using Packard Filtermate 196 Harvester (Meriden, Conn.) onto glass filters. Uptake of [^3H]hypoxanthine was measured with a Packard Topcount Scintillation. Concentration-response data were analyzed by a non-linear regression logistic dose response model and the IC50 values (50% inhibitory concentrations) for each compound were calculated. (Table 3). (b). In Vivo Antimalarial Studies against P. berghei in mice: The in vivo efficacy of the artelinic acid analogs were determined in a modified Thompson test. This test measures the survivability of mice and parasitemia clearance following administration of drug on days 3-5 post infection. In brief, 5×10^6 P. berghei-infected erythrocytes (KBG-173 strain) were inoculated intraperitoneally to female mice that weighed 24-30 g. By day three post-infection, parasitemia ranged from 1.0-3.7%. Each drug, dissolved in 5% sodium bicarbonate, was administered PO twice daily from day 3-5 post-infection. Total doses for each drug ranged from 1.5-384 mg/kg with 8 mice included in each dosage group. The percent suppression of parasitemia in the treated mice compared to the untreated controls was determined for each test compound; the SD-50 (fifty percent suppression dose) and SD-90 were determined from a non-linear regression logistic dose response fit at day 6 parasitemia data. Survival of mice to day 60 post-infection was considered a cure (C). Compounds were considered active (A) when the survival time of the treated mice was greater than twice the control mice, i.e., 12-14 day (Table 4-5). (c). Sporozoite Induced Test Each compound is ground with a mortar & pestle and suspended in 0.5% hydroxyethylcellulose—0.1% Tween 80 for compounds to be administered PO and those given SC are suspended in peanut oil. Each compound is prepared at 3 different dose levels as requested by WRAIR. Compounds are administered either PO or SC to mice once 4 hr before inoculation of sporozoites. Four-week-old male CD-1 mice, purchased from Charles River and weighing 16-17 g, are placed 5 per cage and allowed to acclimate for 4 days before being treated and then inoculated with sporozoites. They are fed food and water ad-lib and maintained at 76° F. with 12 hr light and 12 hr darkness. The cages and water bottles are changed biweekly. The mice are weighed on Days 0, 3 and 6 then biweekly when blood films are taken. Plasmodium yoelii (17×) is used to infect mice that will be used to infect the mosquitoes. Mice are given a single dose of test compound 4 hr before being inoculated intraperitoneally with 2.5×10^5 sporozoites of Plasmodium yoelii on Day 0. […]

[2] = tested on: Plasmodium berghei (KBG-173 strain); assay type: in vivo; conditions: mice, oral
Protocol: as §1

[3] = tested on: Plasmodium falciparum W-2 clone (CDC Indochina III); test: In vitro antimalarial study, [3H]hypoxanthine uptake, W-2 clone; assay type: cell-based; conditions: Plasmodium falciparum, read-out: IC50 W-2
Protocol: as §1

[4] = tested on: D-6, RCS, W-2 and TM91C235 clones of Plasmodium falciparum; test: In vitro tests against D-6, RCS, W-2 and TM91C235 clones; assay type: cell-based; conditions: sensitive and drug resistant P. falciparum cell lines
Protocol: B. Antimalarial Activities: (a). In Vitro Antimalarial Studies. The in vitro assays were conducted by using a modification of the semiautomated microdilution technique of Desjardins et al and Chulay et al.. Four P. falciparum malaria parasite clones, from CDC Indochina III (W-2), CDC Sierra Leone I (D-6), Southeast Asia Isolates (TM91C235) and RCS (Isolates from Brazil) were utilized in susceptibility testing. They were derived by direct visualization and micromanipulation from patient isolates. […] Uptake of [^3H]hypoxanthine was measured with a Packard Topcount Scintillation. Concentration-response data were analyzed by a non-linear regression logistic dose response model and the IC50 values (50% inhibitory concentrations) for each compound were calculated. […] In Vivo Antimalarial Studies against P. berghei in mice: The in vivo efficacy of the artelinic acid analogs were determined in a modified Thompson test. […] The percent suppression of parasitemia in the treated mice compared to the untreated controls was determined for each test compound; the SD-50 (fifty percent suppression dose) and SD-90 were determined from a non-linear regression logistic dose response fit at day 6 parasitemia data. […]

[5] = tested on: Plasmodium falciparum RCS (Isolates from Brazil); test: In vitro antimalarial study, [3H]hypoxanthine uptake, RCS clone; assay type: cell-based; conditions: Plasmodium falciparum; P. falciparum RCS clone
Protocol: as §1

Plasmodium berghei = test: Antimalarial activity against Plasmodium berghei in mice by subcutaneous injection; assay type: in vivo
[6] = tested on: Plasmodium falciparum TM91C235 (Southeast Asia Isolates); test: In vitro antimalarial study, [3H]hypoxanthine uptake, TM91C235 clone; assay type: cell-based; conditions: Plasmodium falciparum, read-out: IC50 TM91C235
Protocol: as §1

[7] = Death rates after single intragastric treatment in rats; assay type: in vivo; conditions: for Day of Death: number of deaths: rats
P. berghei = conditions: rodent model; cited from earlier work
[8] = mice; cited from earlier work
[9] = Aotus monkey; cited from earlier work
P. falciparum = conditions: background, reported; cited from earlier work
[10] = Solubility in common organic solvents and water; assay type: physicochemical

Compound: CCN(CC)c1nc(N(CC)CC)c2c(ccc3c2ccn3Cc2ccccc2C(F)(F)F)n1 [Compound 5, 1,3-bis-(diethylamino)-7-(2-trifluromethyl)benzyl-7H-pyrrolo[3,2-f]quinazoline]
- IC50 [1]: 46 ng/mL (≈ 98 nM)
- oral dose range giving 100% cure against P. berghei ([2]; Thompson test): 10 to 80 mg/kg
- # Mice Alive Day 30/Total ([2]; 160 mg/kg/day): 4/8
- # Mice Alive Day 30/Total ([2]; 80-10 mg/kg/day): 8/8
- # Mice Dead/Day Died ([2]; 80-10 mg/kg/day): none
- IC50 [3]: 104 ng/mL (≈ 222 nM)
- in vitro activity relative to lead compound 1 [4]: over ten thousand fold less active

Compound: Nc1nc(N)c2c(ccc3c2ccn3Cc2ccccc2C(F)(F)F)n1 [Compound 1, 7-[(2-Trifluoromethyl-phenyl)methyl]-7H-pyrrolo[3,2-f]quinazoline-1,3-diamine, reference compound]
- IC50 [1]: 0.0191 ng/mL (≈ 0.0535 nM)
- IC50 [5]: 0.357 ng/mL (≈ 0.999 nM)
- # Mice Alive Day 31/Total (Plasmodium berghei; 20 mg/kg/day): 5/7
- # Mice Alive Day 31/Total (Plasmodium berghei; 40 mg/kg/day): 0/7
- # Mice Alive Day 31/Total (Plasmodium berghei; 10-2.5 mg/kg/day): 7/7
- # Mice Dead/Day Died (Plasmodium berghei; 10-2.5 mg/kg/day): none
- IC50 [6]: 1.22 ng/mL (≈ 3.41 nM)
- Deaths ([7]; rats n=4, single intragastric 25 mg/kg in 1% CMC suspension): 0/4
- Deaths ([7]; rats n=4, single intragastric 50 mg/kg in 1% CMC suspension): 0/4
- Deaths ([7]; rats n=4, single intragastric 100 mg/kg in 1% CMC suspension): 0/4
- Deaths ([7]; rats n=4, single intragastric 200 mg/kg in 1% CMC suspension): 1/4
- Deaths ([7]; rats n=4, single intragastric 400 mg/kg in 1% CMC suspension): 3/4
- Day of Death: number of deaths ([7]; 200 mg/kg, fourth cell after Deaths (day uncertain)): 1
- Day of Death: number of deaths ([7]; 400 mg/kg, second cell after Deaths (day uncertain)): 1
- Day of Death: number of deaths ([7]; 400 mg/kg, third cell after Deaths (day uncertain)): 2
- 100% curative oral dose against P. berghei (P. berghei): <0.1 to 4 mg/kg
- subcutaneous LD50 [8]: less than 20 mg/kg
- dose producing deaths / oral lethal dose [9]: less than 2 mg/kg
- # Mice Alive Day 30/Total ([2]; 40 mg/kg/day): 4/5
- # Mice Dead/Day Died ([2]; 40 mg/kg/day): 1/17
- # Mice Alive Day 30/Total ([2]; 20-1.25 mg/kg/day): 5/5
- # Mice Dead/Day Died ([2]; 20-1.25 mg/kg/day): none
- IC50 [3]: 0.445 ng/mL (≈ 1.25 nM)
- IC50 against P. falciparum in vitro (P. falciparum): ~0.01 ng/mL (≈ 0.028 nM)
- solubility [10]: sparingly soluble
